# From patent publication US10912301B2, “Herbicide combinations comprising L-glufosinate and indaziflam” (BASF SE, priority 2015, dated 2021)
# Read-outs that look alike come from different tables or passages of the source.
# Columns and labels:
# [1] = test system: Amaranthus retroflexus (AMARE); test: Greenhouse pot trial, single post-emergence treatment, herbicidal activity rating; type: in vivo; details: BBCH growth stage 11-12, 12 g/ha indaziflam
# Method: (§1) In separate pots, biological trials were conducted in the greenhouse under identical conditions (apart from the treatment with the different products P1, P2 and P3 mentioned above). Each pot contained the same soil and the same amount of seeds of each of the following weeds (two monocotyledonous and two dicotyledonous harmful plant species (weed species)):
# (§2) The Tables 1 to 6 reflect the observations after certain periods of time, indicated in days (referred to as DAA=days after application) after start of treatment with/application of the respective product P1, P2 or P3 mentioned above, each in the amounts indicated below.
# (§3) Indaziflam was used in an amount of 12 g/ha.
# [2] = test system: Lolium multiflorum (LOLMU); test: as above; type: in vivo; details: BBCH growth stage 11-12, 12 g/ha indaziflam
# Method: as §1, §2, §3
# [3] = test system: Poa annua (POAAN); test: as above; type: in vivo; details: BBCH growth stage 11-12, 12 g/ha indaziflam
# Method: as §1, §2, §3
# [4] = test system: Stellaria media (STEME); test: as above; type: in vivo; details: BBCH growth stage 11-12, 12 g/ha indaziflam
# Method: as §1, §2, §3
# [5] = test system: monocotyledonous and dicotyledonous harmful plant species; test: Post-emergence efficacy of indaziflam alone; type: in vivo; details: product containing 4 g/L of indaziflam, dose rate 12 g/ha
# [6] = test system: monocotyledonous and dicotyledonous harmful plant species; details: stated as known; cited from earlier work
smiles,measurement,setting,value
"Cc1ccc2c(c1)[C@H](Nc1nc(N)nc([C@@H](C)F)n1)[C@@H](C)C2 (mixture of isomers) [indaziflam, N^2-[(1R,2S)-2,3-dihydro-2,6-dimethyl-1H-inden-1-yl]-6-[(1RS)-1-fluoroethyl]-1,3,5-triazine-2,4-diamine]",Ratings of herbicidal activity: Regrowth,[1],very weak herbicidal effect starting on day 7 after treatment
same,Ratings of herbicidal activity: Regrowth,[2],no herbicidal effect
same,Ratings of herbicidal activity: Regrowth,[3],no herbicidal effect
same,Ratings of herbicidal activity: Regrowth,[4],no herbicidal effect
same,post-emergence efficacy,[5],only very limited post-emergence efficacy
same,post-emergence efficacy,[6],insufficient post-emergence efficacy
